“Also recorded” adds a separate entry of the source. Square brackets hold non-standard residues; d marks the D form. Peptide text beside a SMILES is read from it. * marks the point of attachment. Nle = CCCC[C@H](N)C(=O)O; Cbz = O=C(OCc1ccccc1)*

Assay [1] has as its system C8161 melanoma tumor xenograft. The experiment in a line: C8161 melanoma tumor xenograft in Nude mice, z-Leu-Leu-Nle-CHO injections. Type of assay: in vivo. As for the experimental part:
Assessment of tumor formation in Nude mice was performed by adapting the method described in Hendrix, M. J. et al., 1997, Am J Pathol 150:483-495. Tumors were established in Nude mice as follows. Briefly, 1×10^6 aggressive melanoma cells (C8161) (ATCC, Rockville, Md.) were injected subcutaneously in Nude mice on day 0, and the tumors were allowed to grow for 1 week. Beginning on day 8, mice received injections (100 μl) of DMSO carrier only (control group) or z-Leu-Leu-Nle-CHO (1 mM in DMSO) (Calbiochem, LaJolla, Calif.) (experimental group) every other day for 1 week. Tumor sizes (mm^2) were determined on day 7 prior to injections with or z-Leu-Leu-Nle-CHO or DMSO, and on day 14. Average tumor size for both groups was normalized, and size of tumors at 2 weeks was averaged. Detection of apoptosis in tissue sections was performed using TUNEL staining as described in Wrone-Smith et al, 1997, Am J Pathol. 151:1321-9.

In assay [2] the test system is NOXA. The experiment in a line: Western blot of pro-apoptotic proteins in normal melanocytes treated with z-Leu-Leu-Nle-CHO. The class given is cell-based, human. Conditions: data not shown.
Assay [3] relates to T47D:A18 breast cancer cells. The experiment in a line: Cytotoxicity assay in T47D:A18 breast cancer cells. Type of assay: cell-based. To be noted: T47D:A18 (p53 wild-type, ERα-positive); 48 h; read-out: IC50, cell growth inhibition. As for the experimental part:
Cytotoxicity and growth of transfected cells were estimated by a standard assay used for cancer drug screening, through the total amount of TCA-precipitated cell proteins after drug treatment (Likhitwitayawuid, K et al., 1993, J Nat Prod 56:30-38): 200 μl of cell suspension (10^5 cells/ml) were added to each well in a 96-well plate. After incubation at, 37° C., in 5% CO2 (30 minutes to 72 hours depending on the time course chosen), 50 μl 50% trichloroacetic acid was added to each well. After incubation at 4° C. for 1 hour, precipitates were washed with water 4-5 times and air dried overnight. One hundred μl of SRB solution (0.4% sulforhodamine B in 1% acetic acid, filtered before use) was added to each well for 30 minutes. Wells were washed with 1% acetic acid 4-5 times and air dried. Two hundred μl 10 mM Tris base was added to each well. Plates were shaken for 5-10 minutes and OD at 490 nm (OD490) was recorded via ELISA reader. To assay matrix invasion, 300 μl of cell suspension (10^6 cells/mL in serum-free medium) were added to invasion inserts (BioCoat Matrigel Invasion Chambers, Becton Dickinson, Bedford, Mass.) and incubated for 22 hours at 37° C., 5% CO2. Cells were stained with 0.9% crystal violet in 10% ethanol for 20 minutes. […] After removal of the non-invading cells from the interior of the inserts, stained invading cells were lysed in 10% acetic acid and OD595 was determined. […]

For assay [4], the system named is MDA-MB-231 breast cancer cells. The experiment in a line: z-Leu-Leu-Nle-CHO plus Paclitaxel, growth inhibition of MDA-MB-231 cells. Type of assay: cell-based, human. To be noted: 0-0.8 μM with Paclitaxel, 48 h. As for the experimental part:
Three different types of breast cancer cells were contacted with varying concentrations of z-Leu-Leu-Nle-CHO (0-0.8 μM) and the mitotic poison Paclitaxel (0.01-1 μM). MDA-MB231 cells were obtained from ATCC (Rockville, Md.). T47D:C42 and T47D:A18 cells were a kind gift of Debra Tonetti (University of Illinois-Chicago). MDA-MB231 cells were cultured in DMEM medium with 10% FBS. T47D:C42 and T47D:A18 cells were propagated in RPMI 1640 with 10% FBS, 100 μM non-essential amino acid and 6 ng/ml insulin. Gamma-secretase inhibitor z-Leu-Leu-Nle-CHO (Calbiochem 565750) was dissolved in DMSO, aliquoted and stored at −80° C. Paclitaxel (Sigma, St. Louis Mo.) was dissolved in DMSO, aliquoted and stored at −80° C.
To determine whether z-Leu-Leu-Nle-CHO treatment potentiates the effect of Paclitaxel on human breast cancer cells, MDA-MB231, T47D:C42 and T47D:A18 cells were treated for 48 h with 0-0.8 μM z-Leu-Leu-Nle-CHO and various concentrations of Paclitaxel (0.008-1 μM) Following the z-Leu-Leu-Nle-CHO and Paclitaxel treatment, the cells were tested for growth inhibition as described above in Example 13.

For `CCCC[C@@H](C=O)NC(=O)[C@H](CC(C)C)NC(=O)[C@H](CC(C)C)NC(=O)OCc1ccccc1` [z-Leu-Leu-Nle-CHO, N-benzyloxycarbonyl-leucyl-leucyl-norleucinal] (Cbz-Leu-Leu-[Nle]-aldehyde), the average tumor size entry in assay [1] (1 mM in DMSO, 100 μl every other day for 1 week, compared to DMSO, p=0.046, n=11) is recorded as “significantly reduced tumor size”. Besides, the “apoptosis in tumor by immunofluorescent TUNEL assay” value in assay [1] (1 week of treatment, 1 mM, versus DMSO carrier) was “High levels of apoptosis”. Moreover, the “induction of pro-apoptotic proteins (Bak, Bim, NOXA)” value in assay [2] is “did not induce any of the pro-apoptotic proteins; also recorded: did not induce NOXA in normal melanocytes”. Besides, the IC50 – broadly, the point on the concentration scale where inhibition reaches its midpoint – in assay [3] was determined as 570 nM. Also, the “effect on Paclitaxel cell growth inhibition” value in assay [4] is given as “moderately potentiated the effects of Paclitaxel on cell growth inhibition”.

The record behind these values is patent US20080220416A1, “Compositions for Inhibiting Cell Growth and Inducing Apoptosis in Cancer Cells and Methods of Use Thereof” (THE BOARD OF TRUSTEES OF THE UNIVERSITY OF ILLINOI, priority 2004, published 2008).
